Holding throughout (type): cell-based
The test system of one data set is human hepatocytes. Kind of data set: Gene expression from hepatocytes lysates. The conditions noted are these: donor three, N = 5; 14 (μM).
Data set [1] has as its system primary human hepatocytes. Kind of data set: Cell viability by LDH release (CytoTox-One) in primary human hepatocytes. Particulars: for viability compared to 0 dose (in words): primary human hepatocytes, standard treatment, moderate metabolic stress. The procedure:
(§1) Primary human hepatocytes were purchased from Celsis In Vitro Technologies (1450 South Rolling Road Baltimore, MD 21227, USA). […] According to the information provided by the Celsis, hepatocytes from each donor should have at least 70% viability and more than 5 million viable cells. The medium for the culture of hepatocytes was provided by Celsis. They were InVitroGRO CP (for plating) medium (Z99029) and InVitroGRO HI (for incubation) medium (Z99009). Antibiotics (Torpedo Antibiotics Mix, Z990007) were also from Celsis. The thaw, plating and culture of cells were carried out according to the instruction provided by the Celsis In Vitro Technologies.
(§2) For the measurement of cell viability after treatment of test compound, CytoTox-One Homogeneous Membrane Integrity Assay kit (Promega, G7891) was used. The CytoTox-One Assay is a rapid fluorescent measure of the release of lactate dehydrogenase (LDH) from cells with a damaged membrane. The number of […] cells correlates to the fluorescence intensity determined by a fluorescence plate reader (Hidex Chameleon V multiplate reader, Hidex Oy, Turku, Finland) with excitation 544 nm and emission 590 nm. For the measurement of cellular reactive oxygen species (ROS), DCFDA Cellular ROS Detection Assay Kit from Abcam (ab113851) was used. Reactive oxygen species (ROS) assay kit (ab113851) uses the cell permeant reagent 2′,7′-dichlorofluorescein diacetate (DCFDA), a fluorogenic dye that measures hydroxyl, peroxyl and other ROS activity with the cell. The activity of ROS was measured by a fluorescence plate reader (Hidex) with excitation/emission wavelengths of 485 nm/535 nm.
(§3) The culture of primary hepatocytes was carried out based on the instructions provided by Celsis. After thawing, the cells were suspended in InVitroGRO CP medium. Thereafter the viability of cells was determined using the Trypan Blue exclusion method. Then the concentration of cells was adjusted using InVitroGRO CP medium, so about 30000-35000 cells/100 μl/well can be seeded in collagen I coated 96 well plate (BD, 734-0248).
(§4) After seeding, the cells were cultured overnight in the cell culture incubator (Sanyo MCO 18) at atmosphere of 95% air, 5% CO2 at 37° C. Thereafter, the culture medium for the cells was changed to InVitroGRO Hi (Hi Medium) containing test compound (D-glyceric acid calcium salt dehydrate) at the concentrations of 0, 0.2, 2 and 20 μg/ml (study 1, Table 1.1.1) and 0, 0.4, 2 and 10 μg/ml (study 2, Table 1.1.2).
(§5) After 24 h (in study 1) and 20 h (in studies 2-4) incubation medium was renewed. Second renewal of the incubation medium occurred at 48 h in study 1 and at 40 h in other studies. ROS and LDH were measured after 1.5-2 hours after last change of the medium, i.e. in a situation with moderate metabolic stress.
The measurement of LDH from medium (leaked LDH) and from cell and medium (total LDH) was carried out according to the instruction provided by the Promega (G7891). The plate was incubated at an incubator to achieve a temperature of 22° C. Thereafter, equal volume of CytoTox-ONE Reagent to cell culture medium (100 μl) was added to each well and mix for 30 seconds. Then they were incubated for 10 min at 22° C., and then 50 μl of Stop Solution was added to each well. After gentle mixing, the fluorescence signal was measured at an excitation wavelength of 560 nm and emission wavelength of 590 nm using the Hidex Chameleon V multiplate reader (Hidex Oy, Turku, Finland).
For the total LDH measurement, all the steps are same except a 2 μl of Lysis Solution (per 100 μl original volume) will be added to the each well to lyse the cells before CytoTox-ONE Reagents will be added.
For the LDH and ROS assays, individual values of each measurement were stored and average value of fluorescence signals of various repeats of each treatment at studied time point were calculated and compared. […] Viability (LDH) measurements contained 4-6 repeats depending on the study. […]
On the technique in general: LDH leaks from cells whose membrane has failed.

For data set [2], the system named is primary human hepatocytes. As to the kind of experiment: Cellular ROS detection (DCFDA) in primary human hepatocytes. The conditions noted are these: primary human hepatocytes, moderate metabolic stress (1.5-2 h after change of medium). The procedure:
as §1, §2, §3, §4
In study 3 also LGA and HPA were tested and compared to DGA (see FIGS. 11c and 11d) with same doses as in study 2.
In studies 2-4 additional diet with 0.75 mM of palmitic acid (“fatty acid diet”) was added to Hi Medium. Hi Medium in itself contains ample amounts of glucose and fructose and other necessary ingredients for keeping viability of the cell culture at optimal level.
as §5
The measurement of cellular reactive oxygen species (ROS) was carried out according to the instruction of Abcam (ab113851). At the end of treatment time point, culture medium was taken away for leaked LDH measurement and cells were washed with 100 μl/well PBS once. Thereafter 100 μl/well of DCDA mix was added and incubated for 45 min at 37° C. in the dark. Then cells were washed once with 1× buffer solution. The fluorescence signal was measured at an excitation wavelength of 485 nm and emission wavelength of 535 nm using the Hidex Chameleon V multiplate reader (Hidex Oy, Turku, Finland).
For the LDH and ROS assays, individual values of each measurement were stored and average value of fluorescence signals of various repeats of each treatment at studied time point were calculated and compared. […]

The test system of data set [3] is human primary hepatocytes. As to the kind of experiment: NAD+/NADH quantification in human hepatocytes. On the set-up: NADtot / NADH / NAD+ / NAD+/NADH: unit not given here. The conditions noted are these: donor alpha, new nutrition at 48 h, N = 5; 14 (μM); 48 h + 3 h. The text has this:
For the measurement of total NAD (NADtot=NADH+NAD^+) and NAD^+/NADH ratio, a NAD^+/NADH Quantification kit (MAK037) from Sigma was used. NAD functions as an electron carrier, fluctuating between the oxidized (NAD^+) and reduced (NADH) forms. In addition, NAD^+ plays critical roles in ADP-ribosylation reaction and as a substrate for sirtuins. According to the Sigma instruction, the NAD^+/NADH Quantification kit (Sigma) provides a convenient tool for sensitive detection of NAD, NADH and their ratio without requirement to purify them from samples. Important to notice is that the kit measures NADH and NAD^+ in whole cell including all cell organelles and compartments. Mitochondrial matrix is clearly dominant NADH producer from TCA and beta oxidation (consuming naturally the same amount of NAD^+ in redox reactions). Importantly, formed NADH is also typically oxidized into NAD^+ in the matrix by Complex I in ETC. As is well known anaerobic carbohydrate metabolism, i.e. glycolysis, in cytosol also consumes NAD^+ and produces NADH.
Cell culture in NADH-tests was like in Example 1.1. The change of the medium with DGAcs was conducted at 0 h, 24 h and 48 h. NAD measurements were made at 48+3 h in all cases. For CDP also HPA was tested, and for DOO no new nutrition at 48 h was added, i.e. test was conducted in fasting conditions.

Entries after “also recorded” stand apart in the source; their conditions may differ.

On to `O=C(O)C(=O)CO` [HPA, hydroxypyruvate], for which, in the data set on human hepatocytes, the “CYP2B6 gene expression deviation from control” value turned out to be 7%, the “HO-1 gene expression deviation from control” value is reported as 1% and the “PGC-1a gene expression deviation from control” value is given as −2%. In addition, in data set [1], the “viability compared to 0 dose (in words)” value was “modestly increase the viability”. The “ROS compared to 0 dose/control (in words)” value in data set [2] is “decrease ROS levels significantly; also recorded: reduced ROS”. In data set [3], the “Change in NAD+/NADH vs. Control” value is −47%, the “NAD+” value turned out to be 0.010, the “NAD+/NADH” value was 0.045 and the NADH is listed as 0.222. For the same compound, the NADtot in data set [3] was 0.232.

With `O=C(O)[C@@H](O)CO` [LGA, L-glyceric acid], the “viability compared to 0 dose (in words)” value in data set [1] is “modestly increase the viability”. For the same compound, the “ROS compared to 0 dose/control (in words)” value in data set [2] is “decrease ROS levels significantly”.

On to trolox [Vitamin E, reference compound], for which the decrease of viability in data set [1] (donor one, High Medium only, equimolar comparison, 20+20+1.5 h, FIG. 6) was about 23%.

These data come from US12083084B2, “Method for enhancing energy production and metabolism in cells” (REPLICON HEALTH OY, priority 2013, dated 2024).
